Source: PMC4306947, “Synthesis and Antiproliferative Activity of Thiazolyl-bis-pyrrolo[2,3-b]pyridines and Indolyl-thiazolyl-pyrrolo[2,3-c]pyridines, Nortopsentin Analogues” (Marine Drugs, 2015)
Where two headings read alike, the source gives them in different places.

Tests used:
HL-60(TB) = assay: NCI-60 in vitro tumor cell screen, HL-60(TB); format: cell-based; details: Homo sapiens, Leukemia
Experimental: (§1) All the synthesized thiazoles 1a–l, 2a–j, 3a–f and 4a–f were evaluated by the National Cancer Institute (Bethesda MD) for cytotoxicity against the NCI-60 cell line panel using standard protocols. Initially, all derivatives were tested at a single dose (10^−5 M) on the full panel of approximately 60 human tumor cell lines derived from 9 human cancer cell types, that have been grouped in disease sub-panels including leukemia, non-small-cell lung, colon, central nervous system (CNS), melanoma, ovarian, renal, prostate and breast cancers (data not shown). Compounds 1k and 4c were further selected for full evaluation at five concentration levels (10^−4–10^−8 M).
(§2) The antitumor activity of compounds 1k and 4c was given by three parameters for each cell line: GI50 (GI50 is the molar concentration of the compound that inhibits 50% net cell growth), TGI (TGI is the molar concentration of the compound leading to total inhibition of net cell growth), and LC50 (LC50 is the molar concentration of the compound that induces 50% net cell death). The average values of mean graph midpoint (MG_MID) were calculated for each of these parameters.

K-562 = assay: NCI-60 in vitro tumor cell screen, K-562; format: cell-based; details: Homo sapiens, K562; K-562, Leukemia
Experimental: as §1, §2

A549/ATCC = assay: NCI-60 in vitro tumor cell screen, A549/ATCC; format: cell-based; details: Homo sapiens, Non-Small Cell Lung Cancer
Experimental: as §1, §2

EKVK = assay: NCI-60 in vitro tumor cell screen, EKVK; format: cell-based; details: Homo sapiens, Non-Small Cell Lung Cancer
Experimental: as §1, §2

HOP-62 = assay: NCI-60 in vitro tumor cell screen, HOP-62; format: cell-based; details: Homo sapiens; HOP-62, Non-Small Cell Lung Cancer
Experimental: as §1, §2

NCI-H226 = assay: NCI-60 in vitro tumor cell screen, NCI-H226; format: cell-based; details: Homo sapiens; NCI-H226, Non-Small Cell Lung Cancer
Experimental: as §1, §2

HCC-2998 = assay: NCI-60 in vitro tumor cell screen, HCC-2998; format: cell-based; details: Homo sapiens; HCC-2998, Colon Cancer
Experimental: as §1, §2

HT29 = assay: NCI-60 in vitro tumor cell screen, HT29; format: cell-based; details: Homo sapiens, HT-29; HT29, Colon Cancer
Experimental: as §1, §2

SF-268 = assay: NCI-60 in vitro tumor cell screen, SF-268; format: cell-based; details: Homo sapiens; SF-268, CNS Cancer
Experimental: as §1, §2

SNB-75 = assay: NCI-60 in vitro tumor cell screen, SNB-75; format: cell-based; details: Homo sapiens; SNB-75, CNS Cancer
Experimental: as §1, §2

LOX IMVI = assay: NCI-60 in vitro tumor cell screen, LOX IMVI; format: cell-based; details: Homo sapiens, Melanoma
Experimental: as §1, §2

IGROV1 = assay: NCI-60 in vitro tumor cell screen, IGROV1; format: cell-based; details: Homo sapiens, IGROV-1; IGROV1, Ovarian Cancer
Experimental: as §1, §2

OVCAR-3 = assay: NCI-60 in vitro tumor cell screen, OVCAR-3; format: cell-based; details: Homo sapiens; OVCAR-3, Ovarian Cancer
Experimental: as §1, §2

OVCAR-4 = assay: NCI-60 in vitro tumor cell screen, OVCAR-4; format: cell-based; details: Homo sapiens; OVCAR-4, Ovarian Cancer
Experimental: as §1, §2

OVCAR-5 = assay: NCI-60 in vitro tumor cell screen, OVCAR-5; format: cell-based; details: Homo sapiens; OVCAR-5, Ovarian Cancer
Experimental: as §1, §2

786-0 = assay: NCI-60 in vitro tumor cell screen, 786-0; format: cell-based; details: Homo sapiens; 786-0, Renal Cancer
Experimental: as §1, §2

HS 578T = assay: NCI-60 in vitro tumor cell screen, HS 578T; format: cell-based; details: Homo sapiens, Breast Cancer
Experimental: as §1, §2

BT-549 = assay: NCI-60 in vitro tumor cell screen, BT-549; format: cell-based; details: Homo sapiens; BT-549, Breast Cancer
Experimental: as §1, §2

NCI-60 cell line panel = assay: NCI-60 cell line panel, summary over the full panel or subpanel; format: cell-based, human; details: for GI50: Homo sapiens
Experimental: as §1, §2

[1] = test system: HCT-116 colorectal carcinoma cells; assay: MTT viability assay, HCT-116 cells, 24 h; format: cell-based; details: Homo sapiens, 5–100 μM, read-out: GI50 after 24 h treatment
Experimental: (§3) Nortopsentin analogues, prepared as described above, were dissolved in dimethyl sulfoxide (DMSO) and then diluted in culture medium to have a DMSO concentration not exceeding 0.1%. HCT-116 and Caco-2 cell lines were purchased from American Type Culture Collection, Rockville, MD, USA and DMEM supplemented with […], […] bovine serum (FBS), penicillin (100 U/mL), streptomycin (100 μg/mL) and gentamicin (5 μg/mL). Cells were maintained in log phase by seeding twice a week at a density of 3 × 10^8 cells/L in humidified 5% CO2 atmosphere, at 37 °C. In all experiments, HCT-116 cells were made quiescent through overnight incubation before treatment with tested compounds or vehicle alone (control cells), while Caco-2 cells were treated 15 days after confluence, at which time the cells are differentiated in normal intestinal-like cells. […]
(§4) Cytotoxic activity of the nortopsentin derivatives 1k and 4c was determined by the colorimetric assay based on the reduction of […] (MTT) to purple formazan by mitochondrial dehydrogenases. […] Cells were incubated 2 h at 37 °C, then medium was discarded by centrifugation, formazan blue formed in the cells dissolved in DMSO, and absorbance measured at 570 nm in a microplate reader (Bio-RAD, Hercules, CA, USA). […] GI50 was calculated by the curve of percent viability vs. concentration. […]

[2] = test system: intestinal normal-like differentiated Caco-2 cells; assay: MTT viability assay, differentiated Caco-2 cells, 24 h; format: cell-based, human; details: range 5 to 100 μM
Experimental: as §3, §4

HCT-116 cells = assay: Cell cycle analysis by flow cytometry (propidium iodide); format: cell-based, human; details: 24 h, concentrations above and below GI50
Experimental: Cell cycle stage was analyzed by flow cytometry. HCT-116 cells (5.0 × 10^4 cells/cm^2) were seeded in triplicate in 24-wells culture plates. After an overnight incubation, the cells were washed with fresh medium and incubated with compounds 1k and 4c in RPMI for 24 h. Then cells were harvested by trypsinization. Aliquots of 1 × 10^6 cells were washed with PBS and incubated in the dark in a PBS solution containing 20 μg/mL propidium iodide (PI) and 200 μg/mL RNase, for 30 min, at room temperature. Then samples of at least 1.0 × 10^4 cells were subjected to fluorescence-activated cell sorting (FACS) analysis by Epics XL™ flow cytometer using Expo32 software (Beckman Coulter, Fullerton, CA, USA).

[3] = mean over the NCI full panel, read-out: GI50 mean value
[4] = range over the NCI full panel, read-out: GI50 values against most of the human cell lines (range)

Clc1nccc2c(-c3csc(-c4c[nH]c5ccc(Br)cc45)n3)c[nH]c12 [Compound 4c, 3-[2-(5-Bromo-1H-indol-3-yl)-1,3-thiazol-4-yl]-7-chloro-1H-pyrrolo[2,3-c]pyridine]
GI50 (HL-60(TB)): 2.64 µM
GI50 (K-562): 2.73 µM
GI50 (A549/ATCC): 3.83 µM
GI50 (EKVK): 3.11 µM
GI50 (HOP-62): 2.11 µM
GI50 (NCI-H226): 2.4 µM
GI50 (HCC-2998): 2.22 µM
GI50 (HT29): 2.66 µM
GI50 (SF-268): 4.06 µM
GI50 (SNB-75): 2.37 µM
GI50 (LOX IMVI): 1.63 µM
GI50 (IGROV1): 2.51 µM
GI50 (OVCAR-3): 3.45 µM
GI50 (OVCAR-4): 3.25 µM
GI50 (OVCAR-5): 3.14 µM
GI50 (786-0): 1.37 µM
GI50 (HS 578T): 3.7 µM
GI50 (BT-549): 4.7 µM
GI50 (NCI-60 cell line panel; all renal cancer subpanel cell lines, read-out: GI50 range, renal cancer subpanel): 0.93 to 4.16 µM
GI50 (NCI-60 cell line panel; [3]): 2.59 µM
GI50 (NCI-60 cell line panel; [4]): 0.93 to 4.7 µM
percentage of sensitive cell lines out of the total number of cell lines investigated (NCI-60 cell line panel; NCI full panel): 100%
percentage of cell lines with positive LC50 values (NCI-60 cell line panel; NCI full panel, data not shown): 81%
percentage of cell lines with positive TGI values (NCI-60 cell line panel; NCI full panel, data not shown): 98%
GI50 [1]: 13.2 ± 0.95 µM
effect on cell viability [2]: did not affect the differentiated Caco-2 cell viability
alteration of cell cycle distribution (HCT-116 cells): dose-dependent accumulation of cells in G1 phase

Cn1cc(-c2csc(-c3c[nH]c4ncccc34)n2)c2cc(Br)cnc21 [Compound 1k, 5-Bromo-1-methyl-3-[2-(1H-pyrrolo[2,3-b]pyridin-3-yl)-1,3-thiazol-4-yl]-1H-pyrrolo[2,3-b]pyridine]
GI50 (HL-60(TB)): > 100 µM
GI50 (K-562): 8.76 µM
GI50 (A549/ATCC): 2.59 µM
GI50 (EKVK): 1.27 µM
GI50 (HOP-62): 2.39 µM
GI50 (NCI-H226): 1.97 µM
GI50 (HCC-2998): > 100 µM
GI50 (HT29): 6.75 µM
GI50 (SF-268): 6.01 µM
GI50 (SNB-75): 2.18 µM
GI50 (LOX IMVI): 4.26 µM
GI50 (IGROV1): 2.21 µM
GI50 (OVCAR-3): 2.91 µM
GI50 (OVCAR-4): 2.03 µM
GI50 (OVCAR-5): > 100 µM
GI50 (786-0): 9.65 µM
GI50 (HS 578T): 2.43 µM
GI50 (BT-549): 20.5 µM
GI50 (NCI-60 cell line panel; [3]): 5.26 µM
GI50 (NCI-60 cell line panel; [4]): 0.81 to 27.7 µM
percentage of sensitive cell lines out of the total number of cell lines investigated (NCI-60 cell line panel; NCI full panel): 89%
GI50 [1]: 33.5 ± 2.31 µM
effect on cell viability [2]: did not affect the differentiated Caco-2 cell viability
alteration of cell cycle distribution (HCT-116 cells): dose-dependent accumulation of cells in G2/M phase
